Experimental data as given in patent publication US8791141B2, “Organic compounds” (Novartis AG, priority 2008, dated 2014).

Key:
[1] = target: T1, CYP11B2 (aldosterone synthase) (Homo sapiens, UniProt P19099); assay: Inhibition of aldosterone secretion in NCI-H295R cells; format: cell-based; settings: human adrenocortical carcinoma NCI-H295R cells, 24 hours with cell stimulant
T1 construct: the NCI-H295R cells have CYP11B2 (aldosterone synthase) and CYP11B1 (steroid 11-hydroxylase); host or cells: NCI-H295R
T1 sequence (P19099 25-503): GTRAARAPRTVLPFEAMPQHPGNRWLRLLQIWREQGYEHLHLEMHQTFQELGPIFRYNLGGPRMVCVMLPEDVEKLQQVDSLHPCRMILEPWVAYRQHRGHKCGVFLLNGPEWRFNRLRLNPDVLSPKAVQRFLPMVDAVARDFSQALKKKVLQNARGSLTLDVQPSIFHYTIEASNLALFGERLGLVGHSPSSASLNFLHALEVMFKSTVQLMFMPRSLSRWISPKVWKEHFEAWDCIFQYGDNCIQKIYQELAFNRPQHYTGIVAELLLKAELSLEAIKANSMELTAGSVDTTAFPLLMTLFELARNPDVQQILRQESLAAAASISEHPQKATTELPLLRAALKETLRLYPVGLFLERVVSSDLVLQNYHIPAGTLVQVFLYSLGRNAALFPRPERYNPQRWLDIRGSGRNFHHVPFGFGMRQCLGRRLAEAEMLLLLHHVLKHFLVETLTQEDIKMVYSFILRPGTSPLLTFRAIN
Text: (§1) The activities of a compound according to the present invention can be assessed by the following in vitro method well-described in the art.
(§2) In particular, the inhibition of aldosterone and cortisol secretion in vitro can be determined by the following assay.
(§3) The cell line NCI-H295R was originally isolated from an adrenocortical carcinoma and has been characterized in the literature through the stimulable secretion of steroid hormones and the presence of the enzymes essential for steroidogenesis. The cells show the physiological property of zonally undifferentiated human foetal adrenocortical cells which, however, have the capacity to produce the steroid hormones which are formed in the three phenotypically distinguishable zones in the adult adrenal cortex. Thus, the NCI-H295R cells have CYP11B2 (aldosterone synthase) and CYP11B1 (steroid 11-hydroxylase).
(§4) The human adrenocortical carcinoma NCI-H295R cell line is obtained from American Type Culture Collection (Manassas, Va.). Insulin/transferrin/selenium (ITS)-A supplement (100×), DMEM/F-12, antibiotic/antimycotic (100×), and fetal calf serum (FCS) are purchased from Invitrogen (Carlsbad, Calif.). Anti-mouse PVT scintillation proximity assay (SPA) beads and NBS 96-well plates are obtained from Amersham (Piscataway, N.J.) and Corning (Acton, Mass.), respectively. Clear bottom 96-well flat bottom plates are purchased from Costar (Corning, N.Y.). Aldosterone and angiotensin (Ang II) are purchased from Sigma (St. Louis, Mo.). D[1,2,6,7-3H(N)]aldosterone and [1,2,6,7-3H(N)]cortisol are acquired from PerkinElmer (Boston, Mass.). Nu-serum is a product of BD Biosciences (Franklin Lakes, N.J.).
(§5) For in vitro measurement of aldosterone and cortisol activity, human adrenocortical carcinoma NCI-H295R cells are seeded in NBS 96-well plates at a density of 25,000 cells/well in 100 μL of a growth medium containing DMEM/F12 supplemented with 10% FCS, 2.5% Nu-serum, 1 μg ITS/ml, and 1× antibiotic/antimycotic. The medium is changed after culturing for 3 days at 37° C. under an atmosphere of 5% CO2/95% air. On the following day, cells are rinsed with 100 μL of DMEM/F12 and incubated in quadruplicate wells at 37° C. for 24 hours with 100 μL of treatment medium containing a cell stimulant and a compound at different concentrations. […] Cell stimulants which can be used are angiotensin-II (1 micromolar), potassium ions (16 millimolar), forskolin (10 micromolar) or a combination of two stimulants. At the end of incubation, the excretion of aldosterone and cortisol into the culture medium can be detected and quantified by commercially available, specific monoclonal antibodies in radioimmunoassays in accordance with the manufacturer's instructions.
(§6) Measurement of aldosterone can also be performed using a 96-well plate format. Each test sample is incubated with 0.02 μCi of D[1,2,6,7-3H(N)]aldosterone and 0.3 μg of anti-aldosterone antibody in phosphate-buffered saline (PBS) containing 0.1% Triton X-100, 0.1% bovine serum albumin, and 12% glycerol in a total volume of 200 μL at room temperature for 1 hour. Anti-mouse PVT SPA beads (50 μL) are then added to each well and incubated overnight at room temperature prior to counting in a Microbeta plate counter. The amount of aldosterone in each sample is calculated by comparing with a standard curve generated using known quantities of the hormone. Measurement of cortisol can be performed in a manner similar to that of aldosterone, except that [1,2,6,7-3H(N)]cortisol is used.
(§7) Inhibition of the release of a steroid can be used as a measure of the respective enzyme inhibition by the added test compounds. The dose-dependent inhibition of enzymatic activity by a compound is calculated by means of an inhibition plot which is characterized by an IC50. […] The inhibition plot is calculated by fitting a 4-parameter logistic function to the raw data points using the least squares method.

[2] = target: T2, CYP11B1 (steroid 11-hydroxylase) (Homo sapiens, UniProt P15538); assay: Inhibition of cortisol secretion in NCI-H295R cells; format: cell-based; settings: human adrenocortical carcinoma NCI-H295R cells, 24 hours with cell stimulant
T2 construct: the NCI-H295R cells have CYP11B2 (aldosterone synthase) and CYP11B1 (steroid 11-hydroxylase); host or cells: NCI-H295R
T2 sequence (P15538 25-503): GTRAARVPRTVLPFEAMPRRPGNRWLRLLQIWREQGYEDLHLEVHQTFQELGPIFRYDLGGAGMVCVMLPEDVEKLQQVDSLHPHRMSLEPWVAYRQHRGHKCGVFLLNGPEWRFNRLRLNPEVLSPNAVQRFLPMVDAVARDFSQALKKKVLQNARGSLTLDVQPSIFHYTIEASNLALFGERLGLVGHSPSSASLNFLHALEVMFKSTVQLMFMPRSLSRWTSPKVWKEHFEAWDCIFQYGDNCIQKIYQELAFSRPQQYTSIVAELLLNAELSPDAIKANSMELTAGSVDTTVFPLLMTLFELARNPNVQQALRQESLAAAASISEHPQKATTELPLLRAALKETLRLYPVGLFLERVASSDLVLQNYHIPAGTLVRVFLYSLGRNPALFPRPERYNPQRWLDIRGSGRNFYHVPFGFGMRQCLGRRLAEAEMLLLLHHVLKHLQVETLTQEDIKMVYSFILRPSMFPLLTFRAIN
Text: as §1, §2, §3, §4, §5, §6, §7

Cn1c(-c2cncc(OS(C)(=O)=O)c2)c(C#N)c2ccccc21 [Example 138, Methanesulfonic acid 5-(3-cyano-1-methyl-1H-indol-2-yl)-pyridin-3-yl ester]
IC50 [1]: 43 nM
IC50 [2]: 326 nM
